Test results taken from article PMC10301845, “Characterization of a Novel M4 PAM PET Radioligand [11C]PF06885190 in Nonhuman Primates (NHP)” (Molecules, 2023).

Test system: M4
Test: PET measurements of brain distribution in NHP (SUV, VT by 1-TC and Logan)
Format: in vivo, cynomolgus monkey (Macaca fascicularis)
Design: VT 1-TC Baseline: unit not given here
Settings: for VT 1-TC %Decrease / VT Logan %Decrease: baseline vs pretreatment with CVL-231; for VT 1-TC Pretreatment / VT Logan Pretreatment: pretreatment with CVL-231
Protocol: Two male cynomolgus monkeys (Macaca fascicularis, NHP) M1 and M2, with body weight of 7.8 kg and 7.1 kg, respectively, were studied on three different experimental days for a total of six PET measurements. Both NHPs underwent two PET measurements on the same day. The first PET measurement was performed with [^11C]PF06885190, followed by the second PET measurement after pretreatment with either CVL-231 or donepezil. CVL-231 (0.24 mg/kg, IV) was administrated 10 min before the administration of [^11C]PF06885190 via a constant infusion (0.0027 mg/min/kg) throughout the whole PET measurement. Donepezil (0.25 mg/kg) was administrated 30 min before the administration of [^11C]PF06885190. Both NHPs were supplied by the Astrid Fagraeus Laboratory of the Swedish Institute for Infectious Disease Control (SMI), Solna, Sweden. The study was approved by the Animal Ethics Committee of the Swedish Animal Welfare Agency and was performed according to “Guidelines for planning, conducting and documenting experimental research” (Dnr 4820/06-600) of the KI as well as the “Guide for the Care and Use of Laboratory Animals” [26]. Anesthesia was initiated at Astrid Fagraeus Laboratory either by intramuscular injection of ketamine hydrochloride (10 mg/kg) and maintained by the administration of a mixture of isoflurane, oxygen, and medical air through endotracheal intubation, or by intravenous infusion of a mixture of ketamine hydrochloride (4 mg/kg/h) and xylazine hydrochloride (0.4 mg/kg/h). To fix the position of the head of the NHP during the course of whole PET measurement, a prototype device was used. Body temperature was maintained by a Bair Hugger-Model 505 (Arizant Health Care Inc., Eden Prairie, MN 55344, USA) and monitored by an oral thermometer. ECG, heart rate, respiratory rate and oxygen saturation were continuously monitored throughout the experiments and blood pressure was monitored every 15 min.
All the PET measurements in this study were performed by using a High Resolution Research Tomograph (HRRT) (Siemens Molecular Imaging) scanner. The corresponding in-plane resolution with OP-3D-OSEM PSF was 1.5 mm full width at half-maximum (FWHM) at the center of the field of view (FOV) and 2.4 mm at 10 cm off-center directions. List-mode data were acquired continuously for 123 min immediately after intravenous injection of [^11C]PF06885190. Images were reconstructed by the ordinary Poisson-3D-ordered subset expectation maximization (OP-3D-OSEM) algorithm. Prior to each PET acquisition, a 6 min transmission scan was performed, using a single ^137Cs source, for attenuation and scatter correction. Brain magnetic resonance imaging was performed in a 1.5-T GE Signa system (General Electric, Milwaukee, WI, USA). A T1-weighted image was obtained for co-registration with PET and delineation of anatomic brain regions. The T1 sequence was a 3D spoiled gradient-recalled (SPGR) protocol with the following settings: repetition time (TR) 21 ms, flip angle 35°; FOV 12.8; matrix 256 × 256 × 128; 128 × 1.0 mm slices; 2 NEX. The sequence was optimized for trade-off between a minimum of scanning time and a maximum of spatial resolution and contrast between gray and white matter.
For both NHPs, the radioligand [^11C]PF06885190 was administrated with an intravenous (i.v.) injection. The regions of interests (ROIs) were delineated manually on MRI images of each NHP for the whole brain, cerebellum, caudate, putamen, thalamus, frontal cortex, temporal cortex, hippocampus, anterior cingulate cortex, posterior cingulate cortex, parietal cortex, occipital cortex, amygdala, ventral striatum and insula. The summed PET images of the whole duration were co-registered to the MRI image of the individual NHP. After applying the co-registration parameters to the dynamic PET data, the time-activity curves (TACs) of brain regions were generated for each PET measurement. Standardized uptake value (SUV) was calculated for each brain region. […]

[1] = anterior cingulate cortex, baseline
[2] = posterior cingulate cortex, baseline

Compound: Cc1nc(N[11CH3])c2c(c1C)CN(C(=O)C[C@H]1C[C@@H]1c1ccc(F)nc1)C2 [[^11C]PF06885190]
- Change of VT from baseline (after pretreatment with M4 PAM CVL-231): around −10%
- VT 1-TC Baseline (amygdala, baseline): 2.290
- VT Logan Baseline (amygdala, baseline): 2.549
- VT 1-TC %Decrease (amygdala): 6.7%
- VT Logan %Decrease (amygdala): 9.6%
- VT 1-TC Pretreatment (amygdala): 2.137
- VT Logan Pretreatment (amygdala): 2.304
- VT 1-TC Baseline [1]: 2.245
- VT Logan Baseline [1]: 2.503
- VT 1-TC %Decrease (anterior cingulate cortex): 9.6%
- VT Logan %Decrease (anterior cingulate cortex): 8.4%
- VT 1-TC Pretreatment (anterior cingulate cortex): 2.030
- VT Logan Pretreatment (anterior cingulate cortex): 2.293
- VT 1-TC %Decrease (average of brain regions): 10.3%
- VT Logan %Decrease (average of brain regions): 12%
- Whole brain uptake at peak (baseline conditions, i.v.): 2.0–4.1 SUV
- wash-out: time to drop to half of the peak (brain, baseline): around 10 min
- VT 1-TC Baseline (caudate, baseline): 2.388
- VT Logan Baseline (caudate, baseline): 2.683
- VT 1-TC %Decrease (caudate): 1.3%
- VT Logan %Decrease (caudate): 7.8%
- VT 1-TC Pretreatment (caudate): 2.357
- VT Logan Pretreatment (caudate): 2.475
- VT 1-TC Baseline (cerebellum, baseline): 2.205
- VT Logan Baseline (cerebellum, baseline): 3.055
- VT 1-TC %Decrease (cerebellum): 15.0%
- VT Logan %Decrease (cerebellum): 21.4%
- VT 1-TC Pretreatment (cerebellum): 1.875
- VT Logan Pretreatment (cerebellum): 2.401
- change of VT after administration of donepezil (donepezil 0.25 mg/kg 30 min before radioligand): No significant change
- VT 1-TC Baseline (frontal cortex, baseline): 2.521
- VT Logan Baseline (frontal cortex, baseline): 2.940
- VT 1-TC %Decrease (frontal cortex): 15.1%
- VT Logan %Decrease (frontal cortex): 18.6%
- VT 1-TC Pretreatment (frontal cortex): 2.140
- VT Logan Pretreatment (frontal cortex): 2.394
- VT 1-TC Baseline (hippocampus, baseline): 2.361
- VT Logan Baseline (hippocampus, baseline): 2.595
- VT 1-TC %Decrease (hippocampus): 9.1%
- VT Logan %Decrease (hippocampus): 9.8%
- VT 1-TC Pretreatment (hippocampus): 2.146
- VT Logan Pretreatment (hippocampus): 2.341
- VT 1-TC Baseline (insula, baseline): 2.617
- VT Logan Baseline (insula, baseline): 2.811
- VT 1-TC %Decrease (insula): 11.6%
- VT Logan %Decrease (insula): 6.4%
- VT 1-TC Pretreatment (insula): 2.314
- VT Logan Pretreatment (insula): 2.631
- VT 1-TC Baseline (occipital cortex, baseline): 2.871
- VT Logan Baseline (occipital cortex, baseline): 3.534
- VT 1-TC %Decrease (occipital cortex): 14.2%
- VT Logan %Decrease (occipital cortex): 18.7%
- VT 1-TC Pretreatment (occipital cortex): 2.462
- VT Logan Pretreatment (occipital cortex): 2.873
- VT 1-TC Baseline (parietal cortex, baseline): 2.515
- VT Logan Baseline (parietal cortex, baseline): 2.709
- VT 1-TC %Decrease (parietal cortex): 16.1%
- VT Logan %Decrease (parietal cortex): 14.5%
- VT 1-TC Pretreatment (parietal cortex): 2.109
- VT Logan Pretreatment (parietal cortex): 2.316
- VT 1-TC Baseline [2]: 2.384
- VT Logan Baseline [2]: 2.723
- VT 1-TC %Decrease (posterior cingulate cortex): 17.7%
- VT Logan %Decrease (posterior cingulate cortex): 18.3%
- VT 1-TC Pretreatment (posterior cingulate cortex): 1.963
- VT Logan Pretreatment (posterior cingulate cortex): 2.225
- decrease after pretreatment (pretreatment with specific M4 ligand CVL-231): 10%
- VT 1-TC Baseline (putamen, baseline): 2.632
- VT Logan Baseline (putamen, baseline): 3.006
- VT 1-TC %Decrease (putamen): 3.5%
- VT Logan %Decrease (putamen): 7.0%
- VT 1-TC Pretreatment (putamen): 2.539
- VT Logan Pretreatment (putamen): 2.795
- VT 1-TC Baseline (temporal cortex, baseline): 2.690
- VT Logan Baseline (temporal cortex, baseline): 2.992
- VT 1-TC %Decrease (temporal cortex): 11.4%
- VT Logan %Decrease (temporal cortex): 9.2%
- VT 1-TC Pretreatment (temporal cortex): 2.383
- VT Logan Pretreatment (temporal cortex): 2.717
- VT 1-TC Baseline (thalamus, baseline): 2.496
- VT Logan Baseline (thalamus, baseline): 2.778
- VT 1-TC %Decrease (thalamus): 6.4%
- VT Logan %Decrease (thalamus): 14.8%
- VT 1-TC Pretreatment (thalamus): 2.337
- VT Logan Pretreatment (thalamus): 2.367
- VT 1-TC Baseline (ventral striatum, baseline): 2.305
- VT Logan Baseline (ventral striatum, baseline): 2.398
- VT 1-TC %Decrease (ventral striatum): 7.0%
- VT Logan %Decrease (ventral striatum): 3.1%
- VT 1-TC Pretreatment (ventral striatum): 2.144
- VT Logan Pretreatment (ventral striatum): 2.324
